# Assay results published in patent US12606543B2, “Indole derivatives as serotonergic agents useful for the treatment of disorders related thereto” (priority 2023, dated 2026).
# Read-outs that look alike come from different tables or passages of the source.
# Columns and labels:
# [1] = biological target: T1, human 5-hydroxytryptamine receptor 1A (5-HT1A) (Homo sapiens, UniProt P08908); assay: Human 5-HT1A radioligand binding assay ([3H]-8-Hydroxy-DPAT)
# T1 sequence (P08908 1-422): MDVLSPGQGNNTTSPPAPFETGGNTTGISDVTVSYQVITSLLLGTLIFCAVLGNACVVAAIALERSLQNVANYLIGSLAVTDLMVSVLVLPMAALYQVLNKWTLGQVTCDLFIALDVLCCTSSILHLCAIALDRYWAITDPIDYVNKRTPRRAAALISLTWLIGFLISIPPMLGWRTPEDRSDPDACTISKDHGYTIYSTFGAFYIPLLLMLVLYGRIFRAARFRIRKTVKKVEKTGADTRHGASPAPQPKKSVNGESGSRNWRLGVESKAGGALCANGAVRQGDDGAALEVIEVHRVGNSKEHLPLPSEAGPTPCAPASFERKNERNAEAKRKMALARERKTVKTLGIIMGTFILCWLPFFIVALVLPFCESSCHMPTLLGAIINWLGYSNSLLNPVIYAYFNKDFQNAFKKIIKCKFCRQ
# Procedure: The objective of this study was to evaluate the binding properties of test compounds on 5-hydroxytryptamine receptor 1A (5-HT1A).
# 1. The assay buffer was prepared following Table 25 below.
# 2. 8 doses of reference and test compounds were prepared starting from 10 mM stock solution as required by 5-fold serial dilutions with 100% (v/v) DMSO.
# 3. UniFilter-96 GF/B plate was pretreated: • i. 50 μl/well of 0.5% (v/v) PEI was added to UniFilter-96 GF/B plates. The plates were sealed and incubated at 4° C. for 3 hrs. • ii. After incubation, the plates were washed 3 times with ice-cold wash buffer (50 mM Tris, pH7.4).
# 4. Assay plate was prepared: • i. Cell membrane was diluted with assay buffer and 100 μl/well was added to 96 round well plates to reach a concentration of 20 μg/well. • ii. 8 concentrations of reference or test compounds were prepared and 50 μl/well was added to 96 round deep well plates. • iii. [3H]-8-Hydroxy-DPAT was diluted with assay buffer to 2 nM (4× final concentration) and 50 μl/well was added to 96 round well plates.
# 5. The plate was centrifuged at 1000 rpm for 30 secs and then agitated at 600 rpm at room temperature for 5 min.
# 6. The plates were sealed and the plate was incubated at 27° C. for 90 min.
# 7. The incubation was stopped by vacuum filtration onto GF/B filter plates followed by 4 times washing with ice-cold wash buffer (50 mM Tris, pH7.4).
# 9. The filter plates were sealed and 40 μl/well of scintillation cocktail was added.
# 10. The plate was read by using a Microbeta^2 microplate counter.
# (§1) 1. For reference and test compounds, the results were expressed as % Inhibition, using the normalization equation: N=100−100×(U−C2)/(C1−C2), where U is the unknown value, C1 is the average of high controls, and C2 is the average of low controls.
# 2. The IC50 was determined by fitting percentage of inhibition as a […] of compound concentrations with Hill equation using XLfit.
# 1. The assay buffer was prepared following Table 55 below.
# 3. UniFilter-96 GF/B plate was pretreated: • i. 50 μL/well of 0.5% (v/v) PEI was added to UniFilter-96 GF/B plates. The plates were sealed and incubated at 4° C. for 3 hrs. • ii. After incubation, the plates were washed 3 times with ice-cold wash buffer (50 mM Tris, pH7.4).
# 4. Assay plate was prepared: • i. Cell membrane was diluted with assay buffer and 100 μl/well was added to 96 round well plates to reach a concentration of 20 μg/well. • ii. 8 concentrations of reference or test compounds were prepared and 50 μl/well was added to 96 round deep well plates. • iii. [3H]-8-Hydroxy-DPAT was diluted with assay buffer to 2 nM (4× final concentration) and 50 μL/well was added to 96 round well plates.
# [2] = biological target: human 5-HT2B receptor (Homo sapiens, UniProt P41595); assay: Human 5-HT2B radioligand binding assay ([3H]-LSD)
# Chain of human 5-HT2B receptor (P41595 whole entry): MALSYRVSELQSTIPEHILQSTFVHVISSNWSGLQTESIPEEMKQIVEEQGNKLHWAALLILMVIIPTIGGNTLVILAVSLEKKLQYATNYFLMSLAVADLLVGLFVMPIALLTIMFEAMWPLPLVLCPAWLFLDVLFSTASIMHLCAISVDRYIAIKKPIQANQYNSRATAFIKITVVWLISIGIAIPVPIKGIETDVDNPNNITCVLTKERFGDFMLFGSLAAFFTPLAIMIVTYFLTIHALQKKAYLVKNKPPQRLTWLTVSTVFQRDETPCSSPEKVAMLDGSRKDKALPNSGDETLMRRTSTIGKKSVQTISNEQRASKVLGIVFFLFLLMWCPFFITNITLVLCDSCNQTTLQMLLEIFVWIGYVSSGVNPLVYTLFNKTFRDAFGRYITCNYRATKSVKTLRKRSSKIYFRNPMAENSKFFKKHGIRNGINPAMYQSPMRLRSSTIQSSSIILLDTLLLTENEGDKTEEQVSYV
# Procedure: The objective of this study was to evaluate the binding properties of test compounds on 5-HT2B.
# 1) The assay buffer was prepared following Table 29 below.
# 2) Eight doses of reference and test compounds starting from 10 mM stock solution as requested by 5-fold serial dilutions with 100% (v/v) DMSO.
# 3) UniFilter-96 GF/B plate was pretreated: • a. 50 μL/well of 0.5% (v/v) PEI to UniFilter-96 GF/B plates. The plates were sealed and incubated at 4° C. for 3 hrs. • b. After incubation, the plates were washed 3 times with ice-cold wash buffer (50 mM Tris, pH 7.4).
# 4) Assay plate preparation: • a. Cell membrane was diluted with assay buffer and 330 μL/well added to 96 round deep well plates to reach a concentration of 1 unit/well. • b. Eight concentrations of reference or test compounds were prepared and 110 μL/well added to 96 round deep well plates. • c. [3H]-LSD was diluted with assay buffer to 5 nM (5× final concentration) and 110 μL/well was added to 96 round deep well plates.
# 5) The plate was centrifuged at 1000 rpm for 30 secs and then agitated at 600 rpm at room temperature for 5 mins.
# 6) The plates were sealed and incubated at 37° C. for 90 mins.
# 7) The incubation was stopped by vacuum filtration onto GF/B filter plates followed by washing four times with ice-cold wash buffer (50 mM Tris, pH7.4).
# 9) The filter plates were sealed and 40 μL/well of scintillation cocktail was added.
# 10) The plate was read using a Microbeta2 microplate counter.
# as §1, with “For” for “1. For”, “are” for “were”, “controls. The IC50 is determined by fitting percentage of inhibition as a function of compound concentrations with Hill equation.” for “controls.”
# The objective of this study is to evaluate the binding properties of test compounds on 5-HT2B.
# 1) The assay buffer was prepared following Table 59 below.
# 3) UniFilter-96 GF/B plate was pretreated: • a. 50 μL/well of 0.5% (v/v) PEI to UniFilter-96 GF/B plates. The plates were sealed and incubate at 4° C. for 3 hrs. • b. After incubation, the plates were washed three times with ice-cold wash buffer (50 mM Tris, pH7.4).
# 5) The plate was centrifuged at 1000 rpm for 30 secs and then agitated at 600 rpm at room temperature for 5 min.
# 8) The plates were dried at 37° C. for 45 mins.
# 10) The plate was read using a Microbeta^2 microplate counter.
# For reference and test compounds, the results are expressed as % Inhibition, using the normalization equation: N=100−100×(U−C2)/(C1−C2), where U is the unknown value, C1 is the average of the high controls, and C2 is the average of the low controls. The IC50 is determined by fitting percentage of inhibition as a function of compound concentrations with Hill equation.
# [3] = [3H]-LSD displacement, cell membrane, 37° C., 90 min, read-out: 5-HT2B, IC50
# [4] = [3H]-LSD displacement, cell membrane, 37° C., 90 min, read-out: 5-HT2B, Ki
smiles,measurement,setting,value
[2H]C([2H])(c1c[nH]c2ccc(OCCCCCN3C(=O)C4CCCCC4C3=O)cc12)[C@H]1CCCN1C([2H])([2H])[2H] (mixture of isomers) [Rac (R) I-248],IC50,[1],8.3 nM
same,IC50,[2]; [3],46.3 nM
same,Ki,[2]; [4],23.9 nM
"CSc1ccc2[nH]cc(C[C@H]3CCCN3C)c2c1 [(R) I-1, (R)-3-((1-Methylpyrrolidin-2-yl)methyl)-5-(methylthio)-1H-indole]",IC50,[1],3 nM
same,IC50,[2],19 nM
same,Ki,[2],9.82 nM
"COCCN1CCC[C@@H]1Cc1c[nH]c2ccc(OC)cc12 [(R) I-98, (R)-5-Methoxy-3-((1-(2-methoxyethyl)pyrrolidin-2-yl)methyl)-1H-indole]",IC50,[1],5 nM
same,IC50,[2]; [3],45.6 nM
same,Ki,[2]; [4],23.6 nM
"[2H]C([2H])(c1c[nH]c2ccc(OCCCCN3C(=O)c4ccccc4C3=O)cc12)[C@H]1CCCN1C([2H])([2H])[2H] [(R) I-244, (R)-2-(4-((3-((1-(Methyl-d3)pyrrolidin-2-yl)methyl-d2)-1H-indol-5-yl)oxy)butyl)isoindoline-1,3-dione]",IC50,[1],15 nM
same,IC50,[2]; [3],21.4 nM
same,Ki,[2]; [4],11.1 nM
"[2H]C([2H])(c1c[nH]c2ccc(OCCCCCN3C(=O)c4ccccc4C3=O)cc12)[C@H]1CCCN1C([2H])([2H])[2H] [(R) I-245, (R)-2-(5-((3-((1-(Methyl-d3)pyrrolidin-2-yl)methyl-d2)-1H-indol-5-yl)oxy)pentyl)isoindoline-1,3-dione]",IC50,[1],5 nM
